Experimental data as given in patent US20190184364A1, “FRAGRANCE COMPOSITIONS CONTAINING MICROCAPSULES” (INTERNATIONAL FLAVORS & FRAGRANCES INC., priority 2016, published 2019).
≈ marks a conversion by molar mass, not a printed value.

Legend:
[1] = tested on: insect bites; conditions: DEET at 100%; cited from earlier work
[2] = Water solubility of core solvents; assay type: physicochemical
[3] = cited from earlier work; for δD: Hansen dispersion value; for δH: Hansen h-bonding value; for δP: Hansen polar value

solubility [2] [mg/mL]	SMILES	hours of protection against insect bites [1]	δD [3]	δH [3]	δP [3]
	CCN(CC)C(=O)c1cccc(C)c1 [DEET, N,N-Diethyl-meta-toluamide]	up to 12 hours			
< 0.0001	CCCCCCCCCCCCCC(=O)OC(C)C [isopropyl myristate]		16	2.7	2.1
21.5 (≈ 98.6 mM)	CC(=O)OCC(COC(C)=O)OC(C)=O [triacetin]		16.4	9.6	5.7
